Test results as given in patent US20180370912A1, “COMPOUNDS AND METHODS FOR TREATING DISEASES MEDIATED BY PROTEIN DISULFIDE ISOMERASE” (Beth Israel Deaconess Medical Center, Inc., priority 2017, published 2018).

What was measured:
ERp5 = molecular target: T1, ERp5 (Homo sapiens, UniProt Q15084); assay: Maleimide-polyethylene glycol-2-biotin (MPB) binding; conditions: 150 μM inhibitor, FIG. 2c, FIG. 8
T1 construct: recombinant His-tagged full-length ERp5, ERp72 and PDI domain fragments; His; made in house; host or cells: Escherichia coli Origami B (DE3), pET-15b
T1 sequence (Q15084 20-440): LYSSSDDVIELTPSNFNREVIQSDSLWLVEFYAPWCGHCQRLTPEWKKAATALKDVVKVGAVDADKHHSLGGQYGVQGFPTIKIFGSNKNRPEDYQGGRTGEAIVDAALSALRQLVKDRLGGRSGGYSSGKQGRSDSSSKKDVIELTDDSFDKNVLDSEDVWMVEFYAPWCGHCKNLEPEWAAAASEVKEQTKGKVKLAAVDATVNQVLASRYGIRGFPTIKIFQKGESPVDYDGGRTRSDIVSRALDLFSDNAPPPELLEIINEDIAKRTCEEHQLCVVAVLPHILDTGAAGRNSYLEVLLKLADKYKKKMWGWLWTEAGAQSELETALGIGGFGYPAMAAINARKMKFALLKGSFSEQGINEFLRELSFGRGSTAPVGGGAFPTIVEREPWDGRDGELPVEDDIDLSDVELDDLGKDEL
Experimental: (§1) Maleimide-Polyethanol glycol-2-Biotin (MPB) binding experiments were performed in a reaction volume of 37.5 μL with 5 μM of thiol isomerase or bovine serum albumin (BSA) in Tris-buffered saline (TBS), in the presence and absence of 1 mM of N-ethylmaleimide (NEM) or bacitracin, and 150 μM of the mentioned other inhibitors. The reaction mixture was incubated at 37° C. for 1 hour. Subsequently, the reaction mixtures were incubated with 25 μM of MPB. The labeling was performed for 20 minutes at 25° C. A total of 12.5 μL of 4× Laemmli Sample Buffer with 5% β-mercaptoethanol was added to each of the samples, followed by heating at 95° C. for 10 minutes. From each sample, 10 μL was loaded on a 12% SDS-PAGE gel, followed by transfer on a nitrocellulose membrane. After blocking the membrane with TBS-T containing 5% BSA for one hour, the membrane was incubated with a 1:2000 dilution of Cy5-tagged Streptavidin for an hour in the dark. Detection of the immunoblots was performed using ImageQuant LAS 4000 and analysis was performed using ImageQuant TL software.

ERp57 = molecular target: T2, ERp57 (Homo sapiens, UniProt P30101); assay: as above; conditions: 150 μM inhibitor, FIG. 2c, FIG. 8
T2 construct: FLAG; made in house; host or cells: Escherichia coli Origami B (DE3), pET-15b
T2 sequence (P30101 25-505): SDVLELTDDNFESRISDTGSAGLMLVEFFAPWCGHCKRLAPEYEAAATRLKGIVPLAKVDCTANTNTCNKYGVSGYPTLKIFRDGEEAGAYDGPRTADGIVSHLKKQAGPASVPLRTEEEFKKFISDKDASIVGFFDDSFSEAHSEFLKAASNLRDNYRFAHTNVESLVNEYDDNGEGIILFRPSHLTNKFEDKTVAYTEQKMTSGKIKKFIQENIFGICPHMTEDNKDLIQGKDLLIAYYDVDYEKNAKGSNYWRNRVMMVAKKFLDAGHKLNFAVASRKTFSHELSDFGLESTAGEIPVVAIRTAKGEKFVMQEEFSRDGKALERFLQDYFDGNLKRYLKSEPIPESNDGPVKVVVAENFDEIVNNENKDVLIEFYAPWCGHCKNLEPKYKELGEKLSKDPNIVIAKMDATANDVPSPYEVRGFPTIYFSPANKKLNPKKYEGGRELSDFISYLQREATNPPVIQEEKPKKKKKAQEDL
Experimental: as §1

thioredoxin = molecular target: T3, thioredoxin (Homo sapiens, UniProt P10599); assay: as above; conditions: 150 μM inhibitor, FIG. 2c, FIG. 8
T3 sequence (P10599 1-105): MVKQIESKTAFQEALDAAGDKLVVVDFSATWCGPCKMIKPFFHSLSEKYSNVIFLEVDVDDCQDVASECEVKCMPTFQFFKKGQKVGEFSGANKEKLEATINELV
Experimental: as §1

abb′x fragment of PDI = molecular target: T4, abb′x fragment of PDI (Homo sapiens, UniProt P07237); assay: Proteolysis assay with proteinase K
T4 construct: 1.25 μg of the abb′x fragment; His; made in house; host or cells: Escherichia coli Origami B (DE3), pET-15b
T4 sequence (P07237 18-368 limits assumed): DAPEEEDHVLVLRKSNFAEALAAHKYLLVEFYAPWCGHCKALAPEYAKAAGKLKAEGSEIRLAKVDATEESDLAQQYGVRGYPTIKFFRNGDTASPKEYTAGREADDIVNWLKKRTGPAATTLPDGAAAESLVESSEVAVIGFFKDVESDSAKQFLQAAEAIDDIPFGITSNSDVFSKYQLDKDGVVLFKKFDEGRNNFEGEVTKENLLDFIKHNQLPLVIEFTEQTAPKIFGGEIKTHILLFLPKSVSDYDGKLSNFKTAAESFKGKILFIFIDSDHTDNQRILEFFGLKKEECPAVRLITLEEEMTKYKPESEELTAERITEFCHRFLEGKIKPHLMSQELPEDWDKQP
Experimental: Proteinase K (2 μg/mL) was incubated with 1.25 μg of the abb′x fragment in 50 mM Tris-HCl containing 5 mM CaCl2 and 10 mM DTT. Reactions were aborted with the addition of 0.5 mM phenylmethanesulfonyl fluoride (PMSF). Subsequently, samples were subjected to Laemmli Sample buffer with 5% β-mercaptoethanol and heated at 95° C. for 10 minutes. Each sample was loaded on a 12% SDS-PAGE gel, followed by silver staining using the Pierce Silver Stain Kit (Thermo Scientific).

SMILES	reaction of MPB with the catalytic cysteines of ERp5 (ERp5)	reaction of MPB with the catalytic cysteines of ERp57 (ERp57)	reaction of MPB with the catalytic cysteines of thioredoxin (thioredoxin)	proteinase K activity (cleavage of ERp5) (abb′x fragment of PDI; control, not shown)	cleavage of abb′x by proteinase K (abb′x fragment of PDI; presence versus absence of compound, FIG. 5b)
C#CC(=O)N(c1ccc(OC)cc1OC)C(C(=O)NCC(=O)OCC)c1cccs1 (centres unmarked) [PACMA-31, N-(2,4-Dimethoxyphenyl)-N-(1-oxo-2-propyn-1-yl)-2-(2-thienyl)glycyl-glycine ethyl ester, reference compound]	interfered with the reaction of maleimide-polyethylene glycol-2-biotin (MPB)	interfered with the reaction of maleimide-polyethylene glycol-2-biotin (MPB)	interfered with the reaction of maleimide-polyethylene glycol-2-biotin (MPB)	–	–
CCOC(=O)c1c(CNCCN(CC)CC)n(-c2ccccc2)c2cc(Br)c(O)cc12 [bepristat 2a]	–	–	–	did not interfere with proteinase K activity	occurred more rapidly
